We go through three compounds from US20210024507A1, “Compounds” (Step Pharma S.A.S., priority 2018, published 2021).

Each structure is given as a SMILES string. pIC50: −log10 of the molar value.

The target of experiment [1] is T1, human CTPS1 (Homo sapiens, UniProt P17812).
T1 construct: purchased Proteros biostructures GmbH
T1 sequence (P17812 1-591): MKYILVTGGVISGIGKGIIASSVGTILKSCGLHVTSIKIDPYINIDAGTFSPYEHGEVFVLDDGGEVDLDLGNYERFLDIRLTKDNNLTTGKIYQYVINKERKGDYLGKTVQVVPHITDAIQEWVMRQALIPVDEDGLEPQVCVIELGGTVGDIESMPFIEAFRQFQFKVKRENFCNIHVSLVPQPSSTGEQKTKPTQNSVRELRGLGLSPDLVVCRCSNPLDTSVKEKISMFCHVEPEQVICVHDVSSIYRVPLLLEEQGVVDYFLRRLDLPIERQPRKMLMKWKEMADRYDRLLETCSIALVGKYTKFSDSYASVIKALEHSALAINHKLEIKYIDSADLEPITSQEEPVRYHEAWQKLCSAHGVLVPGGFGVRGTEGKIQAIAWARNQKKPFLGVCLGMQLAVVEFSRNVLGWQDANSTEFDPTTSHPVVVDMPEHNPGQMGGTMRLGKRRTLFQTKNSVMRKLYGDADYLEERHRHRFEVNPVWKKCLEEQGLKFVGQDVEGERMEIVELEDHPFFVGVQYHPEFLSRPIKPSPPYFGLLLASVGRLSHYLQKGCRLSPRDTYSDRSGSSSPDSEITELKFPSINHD
Kind of experiment: Human CTPS1 enzyme inhibition (ADP-Glo Max assay). Format: biochemical. The note with it: human full length CTPS1, 25° C., read-out: CTPS1 (Human CTPS1 Enzyme Inhibition, IC50 grouped by potency range). The method in brief:
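Full-length C-terminal FLAG-His-tagged CTPS1, preincubated 10 min at 25 °C with compound in 50mM Tris pH 8.0, 10mM MgCl2, 0.01% Tween-20, 2mM L-cysteine. Started with ATP 0.31mM, GTP 0.034mM, UTP 0.48mM, L-glutamine 0.186mM in substrate mix, run within linear phase at 25 °C. ADP via ADP-Glo Max luminescence; IC50 from % inhibition curve.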
A general note: ADP-Glo turns the ADP formed in a reaction into a luminescent signal.

The test system of experiment [2] is human CTPS1. Kind of experiment: RapidFire/MS-based enzyme selectivity assay, human CTPS1. The experiment is classed as biochemical. The following applies: calculated from the CTPS1 and CTPS2 IC50 values. The method, boiled down:
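Full-length C-terminal FLAG-His-tagged human CTPS1 (1-591) was preincubated 10 minutes at 25° C. with compound in 50 mM HEPES pH 8.0, 20 mM MgCl2, 5 mM KCl, 1 mM DTT and 0.01% Tween-20. Substrate mix contained 0.3 mM ATP, 0.2 mM UTP, 0.07 mM GTP and 0.1 mM L-glutamine, and the reaction ran in its linear phase at 25° C. before formic acid stop. CTP was measured by RapidFire MS relative to ^13C9-^15N3-CTP, and IC50 came from percent inhibition curves.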

A word on the pIC50: it is −log10 of the IC50, conventionally taken in molar units. Consider `CCOc1cncc(-c2ccc(C(=O)NC(CC)c3ccnc(NS(=O)(=O)C4CC4)n3)c(F)c2)n1` (stereo not drawn) [P216, N-(1-(2-(cyclopropanesulfonamido)pyrimidin-4-yl)propyl)-4-(6-ethoxypyrazin-2-yl)-2-fluorobenzamide], for which, on human CTPS1 [1], the pIC50 was at least 7.00. In the experiment on human CTPS1 [2], the “Selectivity (fold selectivity between CTPS1 and CTPS2)” value is listed as “+++ (>60 fold (+++))”.
On the same counts, the results for `CCC(C(=O)Nc1ccc(-c2cncc(Cl)c2)cc1)c1ccnc(NS(=O)(=O)C2CC2)n1` (stereo not drawn) [P1, N-(4-(5-Chloropyridin-3-yl)phenyI)-2-(2-(cyclopropanesulfonamido)pyrimidin-4-yl)butanamide] are 6.00 to 7.00 and “+ (2-30 fold (+))”.
As to `CCOc1cncc(-c2ccc(NC(=O)C(F)(CC)c3cncc(NS(=O)(=O)C4CC4)n3)nc2)n1` (single isomer, unassigned) [P206, 2-(6-(cyclopropanesulfonamido)pyrazin-2-yl)-N-(5-(6-ethoxypyrazin-2-yl)pyridin-2-yl)-2-fluorobutanamide], on human CTPS1 [1], the pIC50 was at least 7.00. For the same compound, in the experiment with human CTPS1 [2], the “Selectivity (fold selectivity between CTPS1 and CTPS2)” value is given as “+++ (>60 fold (+++))”.
